Source: paper PMC6691788, “Design and synthesis of phthalazine-based compounds as potent anticancer agents with potential antiangiogenic activity via VEGFR-2 inhibition” (Journal of Enzyme Inhibition and Medicinal Chemistry, 2019)

Assays:
SR = assay: NCI 60 cell panel SRB screen; assay type: cell-based; conditions: Homo sapiens
NCI-H322M = assay: NCI 60 cell panel SRB screen; assay type: cell-based; conditions: Homo sapiens
SNB-19 = assay: NCI 60 cell panel SRB screen; assay type: cell-based; conditions: Homo sapiens
RXF 393 = assay: NCI 60 cell panel SRB screen; assay type: cell-based; conditions: Homo sapiens
PC-3 = assay: NCI 60 cell panel SRB screen; assay type: cell-based; conditions: Homo sapiens
NCI-H226 = assay: NCI 60 cell panel SRB screen; assay type: cell-based; conditions: Homo sapiens
NCI-H460 = assay: NCI 60 cell panel SRB screen; assay type: cell-based; conditions: Homo sapiens
CCRF-CEM = assay: NCI 60 cell panel SRB screen; assay type: cell-based, human
SK-MEL-5 = assay: NCI 60 cell panel SRB screen; assay type: cell-based; conditions: Homo sapiens
TK-10 = assay: NCI 60 cell panel SRB screen; assay type: cell-based, human; conditions: Homo sapiens; TK-10, single dose 10 μM; read-out: percent cell growth promotion
VEGFR-2 tyrosine kinase = target: T1, VEGFR-2 tyrosine kinase (Homo sapiens, UniProt P35968); assay: In vitro VEGFR-2 tyrosine kinase assay (BPS Bioscience); assay type: biochemical; conditions: read-out: VEGFR-2 % inhibition; 10 μM concentration
T1 construct: purchased BPS Bioscience 40301
T1 sequence (P35968 20-1356): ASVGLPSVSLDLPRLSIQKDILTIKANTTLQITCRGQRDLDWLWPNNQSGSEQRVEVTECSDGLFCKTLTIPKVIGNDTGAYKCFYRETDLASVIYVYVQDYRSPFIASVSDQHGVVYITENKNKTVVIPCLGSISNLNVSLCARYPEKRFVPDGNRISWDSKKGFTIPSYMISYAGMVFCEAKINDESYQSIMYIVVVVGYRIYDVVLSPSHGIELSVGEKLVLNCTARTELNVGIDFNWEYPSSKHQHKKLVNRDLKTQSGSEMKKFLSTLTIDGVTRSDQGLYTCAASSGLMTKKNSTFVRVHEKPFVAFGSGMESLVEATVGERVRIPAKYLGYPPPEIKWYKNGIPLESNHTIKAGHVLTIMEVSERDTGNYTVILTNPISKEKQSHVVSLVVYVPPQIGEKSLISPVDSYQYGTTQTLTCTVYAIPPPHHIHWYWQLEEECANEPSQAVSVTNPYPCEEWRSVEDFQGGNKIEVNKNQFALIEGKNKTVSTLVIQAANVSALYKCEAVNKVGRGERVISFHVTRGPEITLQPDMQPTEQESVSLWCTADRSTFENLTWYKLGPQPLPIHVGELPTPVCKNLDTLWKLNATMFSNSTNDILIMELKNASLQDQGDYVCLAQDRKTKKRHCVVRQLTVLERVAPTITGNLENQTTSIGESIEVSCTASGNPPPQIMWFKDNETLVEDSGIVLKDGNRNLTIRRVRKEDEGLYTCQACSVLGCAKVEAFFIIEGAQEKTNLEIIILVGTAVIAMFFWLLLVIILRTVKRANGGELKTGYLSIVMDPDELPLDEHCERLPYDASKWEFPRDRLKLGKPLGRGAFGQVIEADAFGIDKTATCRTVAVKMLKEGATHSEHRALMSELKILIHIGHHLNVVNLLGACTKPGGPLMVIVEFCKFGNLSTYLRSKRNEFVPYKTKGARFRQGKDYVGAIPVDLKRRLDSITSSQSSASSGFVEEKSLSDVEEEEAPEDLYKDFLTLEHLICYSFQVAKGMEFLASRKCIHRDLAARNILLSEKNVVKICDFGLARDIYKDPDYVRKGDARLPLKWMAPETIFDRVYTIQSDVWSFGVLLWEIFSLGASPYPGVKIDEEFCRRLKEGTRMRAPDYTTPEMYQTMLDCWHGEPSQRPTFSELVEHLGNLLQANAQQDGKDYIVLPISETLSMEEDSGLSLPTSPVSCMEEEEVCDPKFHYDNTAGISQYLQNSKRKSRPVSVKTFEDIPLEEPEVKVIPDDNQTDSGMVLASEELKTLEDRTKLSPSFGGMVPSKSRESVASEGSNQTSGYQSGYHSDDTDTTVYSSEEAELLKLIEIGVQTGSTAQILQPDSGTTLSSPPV
Summary of the method: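 Single-point screen at 10 µM: recombinant VEGFR with poly(Glu,Tyr) 0.2 mg/ml, 10 μM ATP, Tris pH 7.4, MgCl2, BSA, 1% DMSO, 40 min at 30 °C; residual ATP read by Kinase-Glo Plus luminescence.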

T-47D = assay: NCI 60 cell panel SRB screen; assay type: cell-based; conditions: Homo sapiens, T47D
HL-60(TB) = assay: NCI 60 cell panel SRB screen; assay type: cell-based; conditions: Homo sapiens
RPMI-8226 = assay: NCI 60 cell panel SRB screen; assay type: cell-based; conditions: Homo sapiens
HCC-2998 = assay: NCI 60 cell panel SRB screen; assay type: cell-based; conditions: Homo sapiens
OVCAR-8 = assay: NCI 60 cell panel SRB screen; assay type: cell-based; conditions: Homo sapiens
HT29 = assay: NCI 60 cell panel SRB screen; assay type: cell-based; conditions: Homo sapiens, HT-29
LOX IMVI = assay: NCI 60 cell panel SRB screen; assay type: cell-based; conditions: Homo sapiens
KM12 = assay: NCI 60 cell panel SRB screen; assay type: cell-based; conditions: Homo sapiens
OVCAR-3 = assay: NCI 60 cell panel SRB screen; assay type: cell-based; conditions: Homo sapiens
[1] = 5 log dose, 48 h, read-out: LC50 (the source's name)
[2] = single dose 10 μM, read-out: percent cell growth promotion
[3] = read-out: percent cell growth promotion

`Clc1ccc(Nc2nnc(COc3ccccc3)c3ccccc23)cc1` [Compound 17a, N-(4-Chlorophenyl)-4-(phenoxymethyl)phthalazin-1-amine] gave a GI50 (SR; 5 log dose) of 1230 nM, an IC (TGI) (SR; 5 log dose) of 11.2 µM and a CC50 (SR; [1]) greater than 25 µM. The activity at 10 µM (SR; [2]) was -20.6%, the GI50 (NCI-H322M; 5 log dose) was 1560 nM and the IC (TGI) (NCI-H322M; 5 log dose) was 8.2 µM. For the same compound, the CC50 (NCI-H322M; [1]) was greater than 25 µM, the activity at 10 µM (NCI-H322M; [2]) was 21.1% and the GI50 (SNB-19; SNB-19, 5 log dose) was 3.2 µM. For the same compound, the IC (TGI) (SNB-19; SNB-19, 5 log dose) was 12 µM, the CC50 (SNB-19; SNB-19, 5 log dose, 48 h, read-out: LC50 (the source's name)) was greater than 25 µM and the activity at 10 µM (SNB-19; SNB-19, single dose 10 μM, read-out: percent cell growth promotion) was 21.9%. It also gave a GI50 (RXF 393; RXF 393, 5 log dose) of 1010 nM, an IC (TGI) (RXF 393; RXF 393, 5 log dose) of 4.97 µM and a CC50 (RXF 393; RXF 393, 5 log dose, 48 h, read-out: LC50 (the source's name)) of 14.4 µM. It also gave an activity at 10 µM (RXF 393; RXF 393, single dose 10 μM, read-out: percent cell growth promotion) of -5.93%, a GI50 (PC-3; PC-3, 5 log dose) of 1300 nM and an IC (TGI) (PC-3; PC-3, 5 log dose) of 10.1 µM. For the same compound, the CC50 (PC-3; PC-3, 5 log dose, 48 h, read-out: LC50 (the source's name)) was greater than 25 µM, the activity at 10 µM (PC-3; PC-3, single dose 10 μM, read-out: percent cell growth promotion) was -0.2% and the GI50 (NCI-H226; NCI-H226, 5 log dose) was 1560 nM. For the same compound, the IC (TGI) (NCI-H226; NCI-H226, 5 log dose) was 6.58 µM, the CC50 (NCI-H226; NCI-H226, 5 log dose, 48 h, read-out: LC50 (the source's name)) was 21.7 µM and the activity at 10 µM (NCI-H226; NCI-H226, single dose 10 μM, read-out: percent cell growth promotion) was 1.78%. For the same compound, the GI50 (NCI-H460; NCI-H460, 5 log dose) was 2700 nM, the IC (TGI) (NCI-H460; NCI-H460, 5 log dose) was 7.12 µM and the LC50 (concentration causing 50% cell kill) (NCI-H460; NCI-H460, 5 log dose, 48 h) was 18.8 µM. It also gave an activity at 10 µM (NCI-H460; NCI-H460, single dose 10 μM, read-out: percent cell growth promotion) of 3.1%, a TGI (CCRF-CEM; 5 log dose) of 14.2 µM and a GI50 (CCRF-CEM; Homo sapiens, 5 log dose) of 2800 nM. For the same compound, the CC50 (CCRF-CEM; Homo sapiens, 5 log dose, 48 h, read-out: LC50 (the source's name)) was greater than 25 µM, the activity at 10 µM (CCRF-CEM; Homo sapiens, single dose 10 μM, read-out: percent cell growth promotion) was 1.06% and the GI50 (SK-MEL-5; SK-MEL-5) was 1080 nM. For the same compound, the IC (TGI) (SK-MEL-5; SK-MEL-5, read-out: TGI) was 4.56 µM, the activity at 10 µM (SK-MEL-5; SK-MEL-5, read-out: percent cell growth promotion) was -96.1% and the CC50 (SK-MEL-5; SK-MEL-5, 5 log dose, 48 h, read-out: LC50 (the source's name)) was 10.8 µM. It also gave an activity at 10 µM (TK-10) of -17.5%, an inhibition at 10 µM (VEGFR-2 tyrosine kinase) of 31% and a GI50 (T-47D) of 880 nM. For the same compound, the IC (TGI) (T-47D; read-out: TGI) was 8.44 µM, the activity at 10 µM (T-47D; [3]) was -5.86% and the CC50 (T-47D; T-47D, 5 log dose, 48 h, read-out: LC50 (the source's name)) was greater than 25 µM. For the same compound, the GI50 (HL-60(TB); 5 log dose) was 3.56 µM, the IC (TGI) (HL-60(TB); 5 log dose) was 11.9 µM and the CC50 (HL-60(TB); [1]) was greater than 25 µM. The activity at 10 µM (HL-60(TB); [2]) was -15.7%, the GI50 (RPMI-8226; RPMI-8226, 5 log dose) was 1370 nM and the IC (TGI) (RPMI-8226; RPMI-8226, 5 log dose) was 6.96 µM. For the same compound, the CC50 (RPMI-8226; RPMI-8226, 5 log dose, 48 h, read-out: LC50 (the source's name)) was greater than 25 µM, the activity at 10 µM (RPMI-8226; RPMI-8226, single dose 10 μM, read-out: percent cell growth promotion) was -25.3% and the GI50 (HCC-2998; HCC-2998, 5 log dose) was 3.81 µM. For the same compound, the IC (TGI) (HCC-2998; HCC-2998, 5 log dose) was 8.36 µM, the LC50 (50% lethal concentration) (HCC-2998; HCC-2998, 5 log dose, 48 h) was 18.3 µM and the activity at 10 µM (HCC-2998; HCC-2998, single dose 10 μM, read-out: percent cell growth promotion) was 8.55%. It also gave a GI50 (OVCAR-8; OVCAR-8, 5 log dose) of 3.49 µM, an IC (TGI) (OVCAR-8; OVCAR-8, 5 log dose) of 15 µM and a CC50 (OVCAR-8; OVCAR-8, 5 log dose, 48 h, read-out: LC50 (the source's name)) greater than 25 µM. For the same compound, the activity at 10 µM (OVCAR-8; OVCAR-8, single dose 10 μM, read-out: percent cell growth promotion) was 5.02%, the GI50 (HT29; HT29, 5 log dose) was 420 nM and the IC (TGI) (HT29; HT29, 5 log dose) was 4.25 µM. For the same compound, the CC50 (HT29; HT29, 5 log dose, 48 h, read-out: LC50 (the source's name)) was 17.4 µM, the activity at 10 µM (HT29; HT29, single dose 10 μM, read-out: percent cell growth promotion) was 1.32% and the GI50 (LOX IMVI) was 1290 nM. For the same compound, the CC50 (LOX IMVI; [1]) was 11.9 µM, the IC (TGI) (LOX IMVI; read-out: TGI) was 4.85 µM and the activity at 10 µM (LOX IMVI; [3]) was -62%. For the same compound, the GI50 (KM12; KM12, 5 log dose) was 2650 nM, the IC (TGI) (KM12; KM12, 5 log dose) was 7.72 µM and the CC50 (KM12; KM12, 5 log dose, 48 h, read-out: LC50 (the source's name)) was 22.4 µM. The activity at 10 µM (KM12; KM12, single dose 10 μM, read-out: percent cell growth promotion) was 0.18%, the GI50 (OVCAR-3; OVCAR-3, 5 log dose) was 2870 nM and the IC (TGI) (OVCAR-3; OVCAR-3, 5 log dose) was 9.8 µM. For the same compound, the CC50 (OVCAR-3; OVCAR-3, 5 log dose, 48 h, read-out: LC50 (the source's name)) was greater than 25 µM and the activity at 10 µM (OVCAR-3; OVCAR-3, single dose 10 μM, read-out: percent cell growth promotion) was -35.1%.
